# Experimental data as given in US9700550B1, “Decreasing expression level of apoptosis-related genes by treating a human subject with a nitroxide” (priority 2016, dated 2017).
# Assays:
# Assay type in all cases: in vivo
# Bak1 = experiment: Gene expression in cardiac tissue of Tempol-fed mice, chip-based microarray
# Method: (§1) To assess the effects of Tempol on gene expression, Tempol was administered to experimental mice at a dose of 5 mg/g of food from 14 months to 31 months after birth. Mice receiving the same food without the addition of Tempol were used as a negative control. At the age of 31 months, the experimental animals were sacrificed and the hearts were surgically removed. The expression of a broad spectrum of genes in the cardiac tissue was assessed using chip-based microarray technology. Such chips are well known in the art and are widely used to assess gene expression.
# Casp12 = experiment: as above
# Method: as §1
# Casp2 = experiment: as above
# Method: as §1
# Casp3 = experiment: as above
# Method: as §1
# Pdcd5 = experiment: as above
# Method: as §1
# Tradd = experiment: as above
# Method: as §1
# [1] = test system: Trp53inp1 (mouse gene of Tp53inp1); experiment: as above
# Method: as §1
# [2] = test system: Bak1, Pdcd5, Casp2, Tradd, Trp53inp1 (mouse gene of Tp53inp1), Casp3, or Casp12; experiment: Serum level of apoptosis pathway genes in a human subject after Tempol treatment; conditions: 1500 mg Tempol per day for 180 days
# Method: (§2) A 70-kilogram human subject is identified for increased expression level of Bak1, Pdcd5, Casp2, Tradd, Trp53inp1 (mouse gene of Tp53inp1), Casp3, or Casp12. The human subject is administered a dose of 1500 mg of Tempol per day for 180 days. This may be administered in a single dose, or may be administered as a number of smaller doses over a 24-hour period: for example, three 500-mg doses at eight-hour intervals. Following treatment, the serum level of Bak1, Pdcd5, Casp2, Tradd, Trp53inp1 (mouse gene of Tp53inp1), Casp3, or Casp12, is reduced.
# as §2, with “decreased immune response to a bacterial infection.” for “increased expression level of Bak1, Pdcd5, Casp2, Tradd, Trp53inp1 (mouse gene of Tp53inp1), Casp3, or Casp12.”
# as §2, with “identified as at risk” for “identified”, “a psychiatric condition.” for “increased expression level of Bak1, Pdcd5, Casp2, Tradd, Trp53inp1 (mouse gene of Tp53inp1), Casp3, or Casp12.”
# as §2, with “identified as risk” for “identified”, “stress-induced apoptosis.” for “increased expression level of Bak1, Pdcd5, Casp2, Tradd, Trp53inp1 (mouse gene of Tp53inp1), Casp3, or Casp12.”
# (§3) A 70-kilogram human subject is identified as at risk for a disease associated with an increased level of apoptosis. The human subject is administered a dose of 1500 mg of Tempol per day for 180 days. This may be administered in a single dose, or may be administered as a number of smaller doses over a 24-hour period: for example, three 500-mg doses at eight-hour intervals. Following treatment, the serum level of Bak1, Pdcd5, Casp2, Tradd, Trp53inp1 (mouse gene of Tp53inp1), Casp3, or Casp12, is reduced.
# as §2, with “identified as at risk of a disease having an” for “identified for”
# as §3, with “of Parkinson's” for “for a”, “[…].” for “associated with an increased level of apoptosis.”
# [3] = Tempol 5 mg/g of food vs control mice
# [4] = Tempol-treated vs control mice, P-value 0.01
# [5] = Tempol-treated vs control mice, P-value 0.03
# [6] = Tempol-treated vs control mice, P-value 0.00
structure (smiles),measurement,setting,value
"CC1(C)CC(O)CC(C)(C)N1[O] [Tempol, 4-hydroxy-2,2,6,6-tetramethylpiperidine-1-oxyl]","Bak1 expression change, in words",Bak1; [3],statistically significant decrease in expression
same,Bak1 fold change,Bak1; [4],−1.15
same,"Bak1 expression, Tempol-treated mice","Bak1; age 31 months, Tempol 5 mg/g of food from 14 to 31 months, control mice 260",226
same,"Casp12 expression change, in words",Casp12; [3],statistically significant decrease in expression
same,Casp12 fold change,"Casp12; Tempol-treated vs control mice, P-value 0.02",−1.61
same,"Casp12 expression, Tempol-treated mice","Casp12; age 31 months, Tempol 5 mg/g of food from 14 to 31 months, control mice 701",436
same,"Casp2 expression change, in words",Casp2; [3],statistically significant decrease in expression
same,Casp2 fold change,Casp2; [5],−1.20
same,"Casp2 expression, Tempol-treated mice","Casp2; age 31 months, Tempol 5 mg/g of food from 14 to 31 months, control mice 316",261
same,"Casp3 expression change, in words",Casp3; [3],statistically significant decrease in expression
same,Casp3 fold change,Casp3; [6],−1.47
same,"Casp3 expression, Tempol-treated mice","Casp3; age 31 months, Tempol 5 mg/g of food from 14 to 31 months, control mice 604",414
same,"Pdcd5 expression change, in words",Pdcd5; [3],statistically significant decrease in expression
same,Pdcd5 fold change,Pdcd5; [5],−1.15
same,"Pdcd5 expression, Tempol-treated mice","Pdcd5; age 31 months, Tempol 5 mg/g of food from 14 to 31 months, control mice 2863",2503
same,"Tradd expression change, in words",Tradd; [3],statistically significant decrease in expression
same,Tradd fold change,Tradd; [4],−1.23
same,"Tradd expression, Tempol-treated mice","Tradd; age 31 months, Tempol 5 mg/g of food from 14 to 31 months, control mice 288",233
same,"Trp53inp1 expression change, in words",[1]; [3],statistically significant decrease in expression
same,Trp53inp1 fold change,[1]; [6],−1.33
same,"Trp53inp1 expression, Tempol-treated mice","[1]; age 31 months, Tempol 5 mg/g of food from 14 to 31 months, control mice 1107",830
same,"serum level of Bak1, Pdcd5, Casp2, Tradd, Trp53inp1, Casp3, or Casp12 following treatment",[2]; Example 2: 70-kilogram human subject with increased expression level of the gene,reduced
same,"serum level of Bak1, Pdcd5, Casp2, Tradd, Trp53inp1, Casp3, or Casp12 following treatment",[2]; Example 3: 70-kilogram human subject with decreased immune response to a bacterial infection,reduced
same,"serum level of Bak1, Pdcd5, Casp2, Tradd, Trp53inp1, Casp3, or Casp12 following treatment",[2]; Example 4: 70-kilogram human subject at risk for a psychiatric condition,reduced
same,"serum level of Bak1, Pdcd5, Casp2, Tradd, Trp53inp1, Casp3, or Casp12 following treatment",[2]; Example 5: 70-kilogram human subject at risk for stress-induced apoptosis,reduced
same,"serum level of Bak1, Pdcd5, Casp2, Tradd, Trp53inp1, Casp3, or Casp12 following treatment",[2]; Example 6: 70-kilogram human subject at risk for a disease associated with an increased level of apoptosis,reduced
same,"serum level of Bak1, Pdcd5, Casp2, Tradd, Trp53inp1, Casp3, or Casp12 following treatment",[2]; Example 7: 70-kilogram human subject at risk of a disease having an increased expression level of the gene,reduced
same,"serum level of Bak1, Pdcd5, Casp2, Tradd, Trp53inp1, Casp3, or Casp12 following treatment",[2]; Example 8: 70-kilogram human subject at risk of Parkinson's disease,reduced
